Experiments:
[1] = Ocular toxicity study: body weight; settings: 20 min, 12 weekly doses
[2] = tested on: treated eyes (right eye); settings: rabbit, in vivo

Typical conjunctival injection scores immediately after treatment ([2]; New Zealand White, 12 weeks): 1 or <1
Ocular findings in treated eyes (conjunctival injection, discharge, corneal haze) [2]: transient and mild in nature
Compound: C[C@@H]1C[C@H]2[C@@H]3CCC4=CC(=O)C=C[C@]4(C)[C@@]3(F)[C@@H](O)C[C@]2(C)[C@@]1(O)C(=O)COP(=O)(O)O [DSP, dexamethasone sodium phosphate]
Body Weight ([1]; 15% DSP): 8% loss
Body Weight ([1]; 25% DSP): 13% loss

Reference: US20190105264A1, “NON-INVASIVE OCULAR DRUG DELIVERY DEVICES” (Aciont Inc., priority 2017, published 2019)
